Source: the supplement of paper PMC11451515

Test system: SEM cells
Assay: cell viability relative to DMSO control; higher = less cytotoxic
Settings: 48 h
Method in brief: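 Library compounds in DMSO were pin-dosed into 1536-well plates (5 μl) holding NOMO1 or SEM (500 cells/well) or P12-Ichikawa (1000 cells/well) leukemia cells, across an 11-point threefold series of 47 μM to 0.79 nM. Each cell line had been adapted for at least four passages in each medium. CellTiter-Glo One luminescence was read after 48 h at 37°C. Viability is the per-plate percentage relative to DMSO wells, with cell-free wells as background.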

[1] = HPLM + 10% dialyzed FBS, 0.000781 µM
[2] = HPLM + 10% dialyzed FBS, 0.00234 µM
[3] = HPLM + 10% dialyzed FBS, 0.00702 µM
[4] = HPLM + 10% dialyzed FBS, 0.0211 µM
[5] = HPLM + 10% dialyzed FBS, 0.0632 µM
[6] = HPLM + 10% dialyzed FBS, 0.19 µM
[7] = HPLM + 10% dialyzed FBS, 0.569 µM
[8] = HPLM + 10% dialyzed FBS, 1.71 µM
[9] = HPLM + 10% dialyzed FBS, 5.12 µM
[10] = HPLM + 10% dialyzed FBS, 15.4 µM
[11] = HPLM + 10% dialyzed FBS, 46.1 µM
[12] = RPMI 5 mM glucose + 10% dialyzed FBS, 0.000781 µM
[13] = RPMI 5 mM glucose + 10% dialyzed FBS, 0.00234 µM
[14] = RPMI 5 mM glucose + 10% dialyzed FBS, 0.00702 µM
[15] = RPMI 5 mM glucose + 10% dialyzed FBS, 0.0211 µM
[16] = RPMI 5 mM glucose + 10% dialyzed FBS, 0.0632 µM
[17] = RPMI 5 mM glucose + 10% dialyzed FBS, 0.19 µM
[18] = RPMI 5 mM glucose + 10% dialyzed FBS, 0.569 µM
[19] = RPMI 5 mM glucose + 10% dialyzed FBS, 1.71 µM
[20] = RPMI 5 mM glucose + 10% dialyzed FBS, 5.12 µM
[21] = RPMI 5 mM glucose + 10% dialyzed FBS, 15.4 µM
[22] = RPMI 5 mM glucose + 10% dialyzed FBS, 46.1 µM
[23] = RPMI 5 mM glucose + 10% FBS, 0.000781 µM
[24] = RPMI 5 mM glucose + 10% FBS, 0.00234 µM
[25] = RPMI 5 mM glucose + 10% FBS, 0.00702 µM
[26] = RPMI 5 mM glucose + 10% FBS, 0.0211 µM
[27] = RPMI 5 mM glucose + 10% FBS, 0.0632 µM
[28] = RPMI 5 mM glucose + 10% FBS, 0.19 µM
[29] = RPMI 5 mM glucose + 10% FBS, 0.569 µM
[30] = RPMI 5 mM glucose + 10% FBS, 1.71 µM
[31] = RPMI 5 mM glucose + 10% FBS, 5.12 µM
[32] = RPMI 5 mM glucose + 10% FBS, 15.4 µM
[33] = RPMI 5 mM glucose + 10% FBS, 46.1 µM

SMILES	cell viability [1]	cell viability [2]	cell viability [3]	cell viability [4]	cell viability [5]	cell viability [6]	cell viability [7]	cell viability [8]	cell viability [9]	cell viability [10]	cell viability [11]	cell viability [12]	cell viability [13]	cell viability [14]	cell viability [15]	cell viability [16]	cell viability [17]	cell viability [18]	cell viability [19]	cell viability [20]	cell viability [21]	cell viability [22]	cell viability [23]	cell viability [24]	cell viability [25]	cell viability [26]	cell viability [27]	cell viability [28]	cell viability [29]	cell viability [30]	cell viability [31]	cell viability [32]	cell viability [33]
O=C(Cc1cccc(OC(F)(F)F)c1)Nc1ccc(CCCCc2nnc(NC(=O)Cc3ccccn3)s2)nn1	122%	107%	119%	112%	107%	89%	86.7%	87.4%	79.5%	72%	65.1%	141%	116%	108%	91.8%	78.8%	70.3%	70.6%	60.2%	56.7%	50.7%	46%											
CN1CCCN(C(=O)c2cccc(-c3ccc(/C=C4/C(=O)Nc5ccc(Cl)cc54)o3)c2)CC1	98.9%	106%	109%	101%	118%	107%	84.1%	71.7%	48.4%	22.8%	2.97%	110%	108%	115%	106%	114%	115%	75.7%	62.9%	20.4%	5.5%	3.68%	90.2%	117%	106%	119%	127%	112%	77.2%	48%	16.7%	5.69%	3.36%
O=C1NC(=O)[C@@H](c2cn3c4c(cccc24)CCC3)[C@@H]1c1c[nH]c2ccccc12	91.6%	98.3%	111%	99.9%	93.8%	75.2%	96.5%	39.9%	25.5%	22.3%	28.9%	90.6%	98.5%	103%	84.1%	114%	83.2%	102%	39.1%	22.7%	16.4%	34.4%	117%	114%	113%	115%	124%	76.2%	88%	27.4%	20.6%	16.2%	22.5%
